From patent US11208432B2, “Inhibitors of glucocorticoid receptor” (ORIC Pharmaceuticals, Inc., priority 2015, dated 2021) come the findings set out here.

The test system of the first test is AR. The test can be described thus: In Vitro AR Agonism Assay (LNAR reporter cell line). In kind it is cell-based. The following applies: LNAR reporter cells, RPMI + 10% CSS, 18-24 hrs; maximum response of Mifepristone set to 1. Here is the method:
In Vitro AR Agonism Assay
The AR agonism assay was done in the LNAR reporter cell line which has overexpressed AR and 4×ARE-Luc genes. This cell line is sensitive to even minor partial AR agonism activity in hormone-deprived media (CSS). The assays were done in RPMI (without phenol red)+10% CSS using 6000 LNAR cells/well in 384-well plates and compounds were incubated with cells in […] incubator for 18-24 hrs. OneGlo reagent (25 uL/well) was added and plates were read with luminometer within 3 minutes.
To gauge the AR partial agonism activity, Mifepristone is included as a standard in the assay. AR agonism assay results are quantified by determining the ratio of the maximum response of individual compounds to the maximum response of Mifepristone (arbitrarily set to 1). Values of Table 4 are reported as Relative Maximum Response to Mifepristone. This general trend of AR agonism was shown for the class of compounds described herein.
With `CC#C[C@]1(O)CC[C@H]2[C@@H]3CCC4=CC(=O)CC[C@@H]4[C@H]3[C@@H](c3ccc(N(C)C)cc3)C[C@@]21C` [Compound 3], the “Relative Maximum Response to Mifepristone” value is “B (B: >0.4)”. Same read-out and setting: the entry for `COc1ccc([C@H]2C[C@@]3(C)[C@@H](CC[C@@]3(O)C#CC3CC3)[C@@H]3CCC4=CC(=O)CC[C@]4(C)C23)cc1` (stereo partly drawn) [Compound 6] is “A (A: ≤0.4)”; for `CN(C)c1ccc([C@H]2C[C@@]3(C)[C@@H](CC[C@@]3(O)C#CC(C)(C)C)[C@@H]3CCC4=CC(=O)CC[C@@H]4[C@H]32)cc1` [Compound 7, (8R,9S,10R,11S,13S,14S,17S)-11-(4-(dimethylamino)phenyl)-17-(3,3-dimethylbut-1-yn-1-yl)-17-hydroxy-13-methyl-1,2,6,7,8,9,10,11,12,13,14,15,16,17-tetradecahydro-3H-cyclopenta[a]phenanthren-3-one] it is “A (A: ≤0.4)”. Still for that read-out and setting: the value for `COC(C)(C)C#C[C@]1(O)CC[C@H]2[C@@H]3CCC4=CC(=O)CC[C@@H]4[C@H]3[C@@H](c3ccc(N(C)C)cc3)C[C@@]21C` [Compound 10, (8R,9S,10R,11S,13S,14S,17S)-11-(4-(Dimethylamino)phenyl)-17-hydroxy-17-(3-methoxy-3-methylbut-1-yn-1-yl)-13-methyl-1,2,6,7,8,9,10,11,12,13,14,15,16,17-tetradecahydro-3H-cyclopenta[a]phenanthren-3-one] was “A (A: ≤0.4)”; that for `CC(C)C#C[C@]1(O)CC[C@H]2[C@@H]3CCC4=CC(=O)CC[C@]4(C)C3[C@@H](c3ccc(N(C)C)cc3)C[C@@]21C` (stereo partly drawn) [Compound 13, (8S,10R,11S,13S,14S,17S)-11-(4-(Dimethylamino)phenyl)-17-hydroxy-10,13-dimethyl-17-(3-methylbut-1-yn-1-yl)-1,2,6,7,8,9,10,11,12,13,14,15,16,17-tetradecahydro-3H-cyclopenta[a]phenanthren-3-one] was “A (A: ≤0.4)”.

Still in this test, the particulars now being: in concentrations as low as 10 nM.
As for `CC#C[C@]1(O)CC[C@H]2[C@@H]3CCC4=CC(=O)CCC4=C3[C@@H](c3ccc(N(C)C)cc3)C[C@@]21C` [Mifepristone, reference compound], the “partial AR agonism” value is “strong partial AR agonism”.
